In patent publication US20240066155A1, “DUAL MODE RADIOTRACER AND -THERAPEUTICS” (priority 2021, published 2024):
Where “and” joins values, the source holds several entries; their conditions need not be identical. Identical values can stand only once.

Assays:
LNCaP cells = test: PSMA-mediated internalization into LNCaP cells; type: cell-based; conditions: 1 h, 37° C., percentage of reference ligand ([125I]BA)KuE, n=3
Description: (§1) Competitive binding studies were determined on LNCaP cells (1.5×10^5 cells in 1 mL/well) after incubation at 4° C. for 1 h, using (((S)-1-carboxy-5-(4-([^125I]iodo)benzamido)pentyl)carbamoyl)-L-glutamic acid ([^125I]BA)KuE; 0.2 nM/well) as reference radioligand (n=3). Internalization studies of the radiolabeled ligands (1.0 nM/well) were performed on LNCaP cells (1.25×10^5 cells in 1 mL/well) at 37° C. for 1 h and accompanied by ([^125I]BA)KuE (0.2 nM/well), as reference. Data were corrected for non-specific binding and normalized to the specific internalization observed for the reference (n=3). A detailed description of the experimental procedures was previously published (Wurzer A, et al. J Nucl Med. 2020; 61: 735-742).

[1] = test system: LNCaP tumor-bearing male CB-17 SCID mice; test: Ex vivo biodistribution in LNCaP tumor-bearing CB-17 SCID mice; conditions: 24 h p.i.; for Tumor-to-organ ratio adrenals / Tumor-to-organ ratio blood / Tumor-to-organ ratio bone / Tumor-to-organ ratio heart / Tumor-to-organ ratio intestine / Tumor-to-organ ratio kidney / Tumor-to-organ ratio liver / Tumor-to-organ ratio lung / Tumor-to-organ ratio muscle / Tumor-to-organ ratio pancreas / Tumor-to-organ ratio parotid gl. / Tumor-to-organ ratio spleen / Tumor-to-organ ratio stomach / Tumor-to-organ ratio submand. gl.: n=5, mean of ratios per mouse; for Activity accumulation adrenals / Activity accumulation blood / Activity accumulation bone / Activity accumulation heart / Activity accumulation intestine / Activity accumulation kidney / Activity accumulation liver / Activity accumulation lung / Activity accumulation muscle / Activity accumulation pancreas / Activity accumulation parotid gl. / Activity accumulation spleen / Activity accumulation stomach / Activity accumulation submand. gl. / Activity accumulation tumor: n=5, mean, complete dataset; for Activity accumulation tumor / Tumor uptake: LNCaP tumor
Description: All animal experiments were conducted in accordance with general animal welfare regulations in Germany (German animal protection act, as amended on 18 May 2018, Art. 141 G v. 29 Mar. 2017 I 626, approval no. 55.2-1-54-2532-71-13) and the institutional guidelines for the care and use of animals. LNCaP tumor xenografts were established in 6-8 weeks old male CB-17 SCID mice as described previously (Wurzer A, et al. J Nucl Med. 2020; 61: 735-742). Biodistribution Studies. The ^177Ludabeled PSMA inhibitors (2-5 MBq; 0.1 nmol) were injected under isoflurane anesthesia into the tail vein of LNCaP tumor-bearing male CB-17 SCID mice that were sacrificed 24 h post injection (p.i.) (n=4-5). Selected organs were removed, weighed, and measured in a counter. All rhPSMA ligands were evaluated in mice during the same time period (Q1/2020), whereas ^177Ludabeled PSMA-617 and PSMA I&T (Wirtz M, et al. EJNMMI Res. 2018; 8: 84) were assessed previously using the identical cell line, mouse model and experimental procedure.

PSMA = molecular target: T1, PSMA (Homo sapiens, UniProt Q04609); test: Competitive binding studies on LNCaP cells vs ([125I]BA)KuE (affinity, IC50); conditions: 1 h, 4° C., natLu complexes
T1 construct: endogenous in cells; host or cells: LNCaP cells
Description: as §1

[2] = Lipophilicity, n-octanol/PBS (pH 7.4) distribution; type: physicochemical; conditions: n-octanol/PBS pH 7.4, 177Lu-labeled, n=6
Description: Approximately 1 MBq of the ^177Lu-labeled PSMA ligand was dissolved in 1 mL of a 1:1 mixture (v/v) of phosphate-buffered saline (PBS, pH 7.4) and n-octanol (n=6). After vigorous mixing of the suspension for 3 min, the vial was centrifuged at 15000×g for 3 min and 100 μL aliquots of both layers were measured in a γ-counter. Finally, the ratio of the radioactivity detected in the n-octanol sample and the PBS buffer was calculated and expressed as distribution ratio log D7.4.

human serum albumin = molecular target: T2, human serum albumin (Homo sapiens, UniProt P02768); test: Binding to human serum albumin by albumin mediated size exclusion chromatography (AMSEC); type: in vitro ADME; conditions: size exclusion chromatography with HSA in the mobile phase, 177Lu-labeled
T2 construct: purchased Biowest, Nuaillé, France
Description: Binding of ^177Lu-labeled ligands to HSA was assessed by albumin mediated size exclusion chromatography (AMSEC). A gel filtration size exclusion column (Superdex 75 Increase 10/300 GL, GE Healthcare, Uppsala, Sweden) was used with HSA buffer at physiological concentration (700 μM, Biowest, Nuaillé, France) as mobile phase (constant flow rate of 0.8 mL/min at room temperature). For calibration purposes, a commercially available set of proteins (GE Healthcare, Buckinghamshire, UK) was used. Under these chromatographic conditions, the retention time of a radioligand (1.0 MBq, 10-20 GBq/μmol) depends on the extent of HSA/ligand interactions and thus, by means of the calibration with the aforementioned set of proteins, can be translated into an AMW (expressed in kDa) as a parameter allowing to quantify the extent of HSA binding. The detection window ranges between 2.3 kDa ([^18F]Fluoride; no HSA interaction) and 70.2 kDa (experimental molecular weight of HSA; maximum HSA interaction).

[3] = literature, Wängler et al. Bioconjug Chem 2010; cited from earlier work

T1 sequence (Q04609 whole entry): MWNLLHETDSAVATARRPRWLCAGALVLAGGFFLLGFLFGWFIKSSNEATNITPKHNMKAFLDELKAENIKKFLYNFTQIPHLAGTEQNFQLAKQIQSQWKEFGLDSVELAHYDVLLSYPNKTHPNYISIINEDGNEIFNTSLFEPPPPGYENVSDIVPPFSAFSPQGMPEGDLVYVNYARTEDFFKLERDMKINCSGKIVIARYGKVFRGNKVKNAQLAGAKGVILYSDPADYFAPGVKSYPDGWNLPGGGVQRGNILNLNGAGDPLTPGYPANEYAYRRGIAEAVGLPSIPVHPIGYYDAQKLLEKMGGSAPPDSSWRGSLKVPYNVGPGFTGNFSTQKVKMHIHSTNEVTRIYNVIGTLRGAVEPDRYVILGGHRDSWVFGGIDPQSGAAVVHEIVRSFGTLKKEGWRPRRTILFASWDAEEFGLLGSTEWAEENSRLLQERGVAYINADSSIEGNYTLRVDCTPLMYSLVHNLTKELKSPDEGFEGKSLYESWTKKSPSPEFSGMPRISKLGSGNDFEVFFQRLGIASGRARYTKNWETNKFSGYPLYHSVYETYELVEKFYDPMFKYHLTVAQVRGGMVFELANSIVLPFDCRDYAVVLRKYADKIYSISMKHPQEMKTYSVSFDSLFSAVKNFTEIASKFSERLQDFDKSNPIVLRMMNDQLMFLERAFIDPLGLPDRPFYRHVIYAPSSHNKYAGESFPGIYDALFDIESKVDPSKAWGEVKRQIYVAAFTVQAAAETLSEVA
T2 sequence (P02768 25-609): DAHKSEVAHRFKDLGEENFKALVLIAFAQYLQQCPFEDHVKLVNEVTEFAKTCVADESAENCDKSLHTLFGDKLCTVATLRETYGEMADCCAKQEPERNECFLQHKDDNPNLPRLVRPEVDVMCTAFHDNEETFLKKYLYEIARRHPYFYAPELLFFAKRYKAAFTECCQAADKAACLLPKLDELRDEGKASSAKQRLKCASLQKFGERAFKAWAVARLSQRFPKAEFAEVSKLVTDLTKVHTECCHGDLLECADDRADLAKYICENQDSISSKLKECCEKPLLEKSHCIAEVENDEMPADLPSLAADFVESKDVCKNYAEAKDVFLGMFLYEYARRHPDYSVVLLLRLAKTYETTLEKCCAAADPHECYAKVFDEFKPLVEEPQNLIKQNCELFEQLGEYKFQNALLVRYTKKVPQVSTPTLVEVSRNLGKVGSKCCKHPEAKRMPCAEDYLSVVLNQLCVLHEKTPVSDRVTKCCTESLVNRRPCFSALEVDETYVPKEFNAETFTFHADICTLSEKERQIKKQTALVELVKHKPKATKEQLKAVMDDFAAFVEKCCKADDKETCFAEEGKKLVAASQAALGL

Row | Molecule | Internalization [% IBA-KuE] (LNCaP cells) | Tumor-to-organ ratio adrenals [1] | Tumor-to-organ ratio blood [1] | Tumor-to-organ ratio bone [1] | Tumor-to-organ ratio heart [1] | Tumor-to-organ ratio intestine [1] | Tumor-to-organ ratio kidney [1] | Tumor-to-organ ratio liver [1] | Tumor-to-organ ratio lung [1] | Tumor-to-organ ratio muscle [1] | Tumor-to-organ ratio pancreas [1] | Tumor-to-organ ratio parotid gl. [1] | Tumor-to-organ ratio spleen [1] | Tumor-to-organ ratio stomach [1] | Tumor-to-organ ratio submand. gl. [1] | Activity accumulation adrenals [1] [% ID/g] | Activity accumulation blood [1] [% ID/g] | IC50 (PSMA; n=3) [nM] | logD7.4 [2] | MWapp [kDa] (apparent molecular weight, AMW; HSA binding) (human serum albumin) | further results
1 | CC(C)(C)[Si](F)(c1ccc(C(=O)NC[C@@H](NC(=O)CC[C@@H](C(=O)O)N2CCN(CC(=O)[O-])CCN(CC(=O)[O-])CCN(CC(=O)[O-])CC2)C(=O)N[C@H](CCCCNC(=O)CCC(=O)NCCC[C@@H](NC(=O)CC[C@H](NC(=O)N[C@@H](CCC(=O)O)C(=O)O)C(=O)O)C(=O)O)C(=O)O)cc1)C(C)(C)C.[Lu+3] [[^177Lu, ^19F]rhPSMA-7.3] | 184.4 ± 11.8 % IBA-KuE | 44.34 | 4255 | 625.98 | 542.49 | 254.02 | 1.64 | 78.11 | 239.97 | 2123.58 | 754.34 | 176.66 | 34.32 | 453.70 | 290.08 | 0.4233 | 0.0046 | 3.29 ± 1 | −4.12 ± 0.11 | 30.4 | Tumor-to-organ ratio blood ([1]; listed as [^177Lu]rhPSMA-7.3): 4255.56; Activity accumulation bone [1]: 0.0307 % ID/g; Activity accumulation heart [1]: 0.0333 % ID/g; Activity accumulation intestine [1]: 0.1001 % ID/g; Activity accumulation kidney [1]: 11.4±1.4 % ID/g; Activity accumulation liver [1]: 0.2352 % ID/g; Activity accumulation lung [1]: 0.0768 % ID/g; Activity accumulation muscle [1]: 0.0094 % ID/g; Activity accumulation pancreas [1]: 0.0241 % ID/g; Activity accumulation parotid gl. [1]: 0.1068 % ID/g; Activity accumulation spleen [1]: 0.5817 % ID/g; Activity accumulation stomach [1]: 0.0434 % ID/g; Activity accumulation submand. gl. [1]: 0.0644 % ID/g; Activity accumulation tumor [1]: 18.1740 % ID/g; Activity accumulation kidney ([1]; listed as [^177Lu]rhPSMA-7.3): 11.3738 % ID/g
2 | CC(C)(C)[Si]([19F])(c1ccc(C(=O)NC[C@@H](NC(=O)CN2CCN(CC(=O)O)CCN(CC(=O)O)CCN(CC(=O)O)CC2)C(=O)N[C@H](CCCCNC(=O)CCC(=O)NCCC[C@@H](NC(=O)CC[C@H](NC(=O)N[C@@H](CCC(=O)O)C(=O)O)C(=O)O)C(=O)O)C(=O)O)cc1)C(C)(C)C [[^177Lu, ^19F]rhPSMA-10.1, metal not drawn] | 177.4 ± 14.6 % IBA-KuE | 137.57 | 9117 | 389.88 | 641.37 | 250.87 | 5.5 | 72.52 | 404.28 | 2431.90 | 797.72 | 206.18 | 63.66 | 351.52 | 344.45 | 0.0983 | 0.0019 | 2.76 ± 0.51 | −3.8 and −3.78 ± 0.06 | 25.1 | Kidney uptake as percentage of that of [177Lu, 19F]rhPSMA-7.3 [1]: 20%; Tumor-to-blood ratio, times higher compared to [177Lu, 19F]rhPSMA-7.3 [1]: 2 times; Tumor-to-blood ratio, times higher compared to [177Lu]PSMA-617 [1]: 7 times; Tumor uptake [1]: 9.8±0.3 % ID/g; Tumor-to-organ ratio blood ([1]; listed as [^177Lu]rhPSMA-10.1): 9117.20; Tumor-to-organ ratio kidney ([1]; listed as [^177Lu]rhPSMA-10.1): 5.52; Activity accumulation bone [1]: 0.0298 % ID/g; Activity accumulation heart [1]: 0.0192 % ID/g; Activity accumulation intestine [1]: 0.0642 % ID/g; Activity accumulation liver [1]: 0.1631 % ID/g; Activity accumulation lung [1]: 0.0346 % ID/g; Activity accumulation muscle [1]: 0.0053 % ID/g; Activity accumulation pancreas [1]: 0.0155 % ID/g; Activity accumulation parotid gl. [1]: 0.0551 % ID/g; Activity accumulation spleen [1]: 0.1828 % ID/g; Activity accumulation stomach [1]: 0.0388 % ID/g; Activity accumulation submand. gl. [1]: 0.0338 % ID/g; Activity accumulation tumor [1]: 11.5563 % ID/g; Activity accumulation kidney ([1]; listed as [^177Lu]rhPSMA-10.1): 2.4219 % ID/g
3 | CC(C)(C)[Si](F)(c1ccc(C(=O)NC[C@H](NC(=O)CN2CCN(CC(=O)[O-])CCN(CC(=O)[O-])CCN(CC(=O)[O-])CC2)C(=O)N[C@H](CCCCNC(=O)CCC(=O)NCCC[C@@H](NC(=O)CC[C@H](NC(=O)N[C@@H](CCC(=O)O)C(=O)O)C(=O)O)C(=O)O)C(=O)O)cc1)C(C)(C)C.[Lu+3] [[^177Lu, ^19F]rhPSMA-10.2] | 205.6 ± 8.3 % IBA-KuE |  |  |  |  |  |  |  |  |  |  |  |  |  |  |  |  | 3.61 ± 0.59 | −3.8 and −3.83 ± 0.10 | 21.8 | Tumor uptake [1]: 10.5±3.3 % ID/g
4 | O=C([O-])CN1CCN(CC(=O)[O-])CCN(C(CCC(=O)N[C@H](Cc2ccc(O)c(I)c2)C(=O)N[C@H](Cc2ccccc2)C(=O)N[C@H](CCCCNC(=O)CCCCCCC(=O)NCCCC[C@H](NC(=O)N[C@@H](CCC(=O)O)C(=O)O)C(=O)O)C(=O)O)C(=O)O)CCN(CC(=O)[O-])CC1.[Lu+3] (some centres unmarked) [[^177Lu]PSMA I&T] | 145±14 % IBA-KuE and 145.4 ± 13.8 % IBA-KuE | 5.62 | 1288 | 358.26 | 366.06 | 191.31 | 0.6 | 155.09 | 65.08 | 1964.92 | 336.33 | 63.21 | 9.06 | 236.69 | 136.76 | 1.3590 | 0.0061 | 4.17 ± 0.78 | −4.1 ± 0.1 | 5.3 | Tumor uptake [1]: 4.1±1.1 % ID/g; Tumor-to-organ ratio blood ([1]; listed as [^177Lu] PSMA-I&T): 1288.54; Tumor-to-organ ratio kidney ([1]; listed as [^177Lu] PSMA-I&T): 0.61; Activity accumulation bone [1]: 0.0209 % ID/g; Activity accumulation heart [1]: 0.0208 % ID/g; Activity accumulation intestine [1]: 0.0507 % ID/g; Activity accumulation kidney [1]: 15.9±12.0 % ID/g; Activity accumulation liver [1]: 0.0553 % ID/g; Activity accumulation lung [1]: 0.1138 % ID/g; Activity accumulation muscle [1]: 0.0051 % ID/g; Activity accumulation pancreas [1]: 0.0295 % ID/g; Activity accumulation parotid gl. [1]: 0.1346 % ID/g; Activity accumulation spleen [1]: 1.2047 % ID/g; Activity accumulation stomach [1]: 0.0326 % ID/g; Activity accumulation submand. gl. [1]: 0.0581 % ID/g; Activity accumulation tumor [1]: 7.5780 % ID/g; Activity accumulation kidney ([1]; listed as [^177Lu]PSMA-I&T): 15.8527 % ID/g; IC50 (PSMA; n=3, listed as [^natLu]PSMA I&T): 4.2 ± 0.8 nM
5 | SIFA-Asn(AcNH-β-Glc)-PEG-Tyr^3-octreotate |  |  |  |  |  |  |  |  |  |  |  |  |  |  |  |  |  |  |  |  | log P(ow) [3]: 0.96
6 | SIFA-Asn(AcNH-β-Glc)-Tyr^3-octreotate |  |  |  |  |  |  |  |  |  |  |  |  |  |  |  |  |  |  |  |  | log P(ow) [3]: 1.23
